# From patent EP3502102A1, “STING INHIBITORS” (ECOLE POLYTECHNIQUE FEDERALE DE LAUSANNE (EPFL), priority 2017, dated 2019)
# Biological target: T1, STING (Mus musculus, UniProt Q3TBT3)
# T1 sequence (Q3TBT3 1-378): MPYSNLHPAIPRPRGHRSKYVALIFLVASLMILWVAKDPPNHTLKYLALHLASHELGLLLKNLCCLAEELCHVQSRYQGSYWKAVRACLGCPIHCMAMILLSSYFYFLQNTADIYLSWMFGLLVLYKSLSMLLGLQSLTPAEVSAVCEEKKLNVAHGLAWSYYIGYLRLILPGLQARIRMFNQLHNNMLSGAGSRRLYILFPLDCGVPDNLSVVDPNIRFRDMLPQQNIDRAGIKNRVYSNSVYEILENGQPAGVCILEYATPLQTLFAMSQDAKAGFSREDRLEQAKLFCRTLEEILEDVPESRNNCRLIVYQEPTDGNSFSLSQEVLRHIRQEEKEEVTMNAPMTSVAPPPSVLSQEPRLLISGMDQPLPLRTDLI
# Experiment: High-throughput screen and secondary screen in HEK293T cells expressing mCherry-STING, cdG-Syn versus RIG-I
# Assay type: cell-based
# Parameters: expressed in transfected cells; host or cells: HEK293T
# Details: primary screen and counter-screen; library compounds 10 µM
# Description: Reporter activity was measured 16 h after compound treatment. A nonlinear regression analysis was performed. […] Circles indicate substitutes compared to C-176. d, e, Chemical compounds from ([…]) in conjunction with IFN-• luciferase reporter, respectively. b, e, f, Values of inhibitor-treated cells were normalized to DMSO-treated cells. […] Cytokine levels were normalized to DMSO-treated control cells. A nonlinear regression analysis was performed for cGAMP stimulation. b, c, BMDMs were pre-treated with C-178 (0.25 µM) and stimulated with cGAMP, cyclic di-GMP, CMA, 90mer dsDNA or LPS for 3 h. The induction of Ifnb1 mRNA levels was assessed by RT-qPCR. d, Heatmaps of RNA sequencing analysis of BMDMs treated with DMSO or CMA and with or without addition of C-178. […] Reporter activity was measured 16 h after transfection and values were normalized to DMSO-treated control cells. c, BMDMs were treated with C-178 (0.25 µM) for 1 h, washed or left untreated and after an additional hour stimulated with cGAMP. […] Flag-STING was immunoprecipitated from whole cell lysate and analysed by autoradiography. In parallel, cell lysates were analysed by immunoblotting for p-TBK1 and STING. d, HEK293T cells expressing STING were treated as indicated (C-178 (1 µM)) and stimulated with CMA for 1.5 h. […] Depicted genes were measured by RT-qPCR.
smiles,measurement,value
"O=C(Nc1ccc(I)cc1)c1ccc([N+](=O)[O-])o1 [C-176, N-(4-iodophenyl)-5-nitro-2-furamide]",IFN signal in response to cdG-Syn/STING versus RIG-I,selectively reduced the IFN signal in response to cdG-Syn/STING but not to RIG-I
